Test results: patent US20260234144A1 (TAY THERAPEUTICS LIMITED, priority 2023, published 2026)

Tested on: R223X stop codon in the mutated luciferase gene, ADXC8 luciferase reporter cell line
Experiment: cells
Format: cell-based
Conditions: ADXC8 cells, 24 hours; for Emax / EC (100% of 200 uM G418 response): 24 h; for Emax: read-out: Fold Over Control, maximum fold response relative to 200 μM G418; for EC (100% of 200 uM G418 response): read-out: pC100%, negative logarithm of the concentration giving the same response as 200 μM G418; for pC100%: negative logarithm of the concentration giving the same response as 200 μM G418

Compound | Emax [%] | EC (100% of 200 uM G418 response) [µM] | Fold Over Control (maximum fold response relative to 200 μM G418) | pC100%
Cc1cc(C)c2c(N)nc(N[C@H]3CCCN(Cc4ccccc4)C3)nc2n1 [Example 215] | 100 to 3000 | 1 to 10 |  | 
Cc1cc(C)c2c(N)nc(NC3CCN(Cc4ccc(C(N)=O)cc4)CC3)nc2n1 [Example 476] | 100 to 3000 | 10 to 100 |  | 
Cc1cc(C)c2c(N)nc(NC3CCCCN(C(=O)OC(C)(C)C)C3)nc2n1 (stereo not shown) [Example 135] | 0 to 100 | > 100 |  | 
CSc1ccccc1-c1ccc2c(N)nc(NC3CCN(C)CC3)nc2n1 [Example 82] |  | 1 to 10 |  | 
CN1CCC(Nc2nc(N)c3ccc(-c4cccc(F)c4)nc3n2)CC1 [Example 62] | 100 to 3000 | 1 to 10 |  | 
Cc1cc(C)c2c(N)nc(NC3CCNC[C@@H]3F)nc2n1 (stereo partly shown) [Example 206] | 100 to 3000 | 1 to 10 |  | 
Cc1nc2nc(NC3CCN(C)CC3)nc(N)c2c(C)c1-c1cnn(C)c1 [Example 678] | 0 to 100 | > 100 |  | 
Cc1cc(C)c2c(N)nc(NCCN3CCOCC3)nc2n1 [Example 173] | 0 to 100 | > 31.6 |  | 
COC(C)c1ccc2c(N)nc(NC3CCN(C)CC3)nc2n1 (stereo not shown) [Example 290] | 100 to 3000 | 10 to 100 |  | 
Cc1cc(C)c2c(N)nc(NCCN3Cc4ccccc4C3)nc2n1 [Example 37, N^2-(2-(isoindolin-2-yl)ethyl)-5,7-dimethylpyrido[2,3-d]pyrimidine-2,4-diamine] |  | 10 to 100 |  | 
Cc1cc(C)c2c(N)nc(NC3CCN(CC(F)(F)F)CC3)nc2n1 [Example 178] | 0 to 100 | > 100 |  | 
Cc1cc(C)c2c(N)nc(NCCCN3CC4(CCOC4)C3)nc2n1 [Example 187] | 100 to 3000 | 10 to 100 |  | 
Cc1cc(C)c2c(N)nc(NC3CN(C)C3)nc2n1 [Example 153] | 0 to 100 | > 31.6 |  | 
CCNc1nc(N[C@H]2CNC[C@@H]2F)nc2nc(C)cc(C)c12 [Example 394] |  | 1 to 10 |  | 
Cc1cc(C)c2c(N)nc(N[C@@H]3CN[C@@H](C)C3)nc2n1 [Example 349] | 100 to 3000 | 10 to 100 |  | 
CC(CO)c1ccc2c(N)nc(NC3CCN(C)CC3)nc2n1 (stereo not shown) [Example 240, 2-(4-amino-2-((1-methylpiperidin-4-yl)amino)pyrido[2,3-d]pyrimidin-7-yl)propan-1-ol] | 0 to 100 | > 100 |  | 
Cc1cc(C)c2c(N)nc(NCC3CCCN(C)C3)nc2n1 (stereo not shown) [Example 174] | 100 to 3000 | 10 to 100 |  | 
Cc1cc(C)c2c(N(C)C3CC3)nc(NC3CCN(C)CC3)nc2n1 [Example 265] | 0 to 100 | > 100 |  | 
Cc1nc2nc(NC3CCN(C)CC3)nc(N)c2c(-c2ccccc2)c1Cl [Example 271] | 0 to 100 | > 31.6 |  | 
CNc1ccc2c(N)nc(NC3CCN(C)CC3)nc2n1 [Example 34, N^7-methyl-N2-(1-methylpiperidin-4-yl)pyrido[2,3-d]pyrimidine-2,4,7-triamine] | 100 to 3000 | 10 to 100 |  | 
Cc1cc(C)c2c(N)nc(NCCN3CC(C(F)(F)F)C3)nc2n1 [Example 166] | 100 to 3000 | 10 to 100 |  | 

Compound | Emax [%] | EC (100% of 200 uM G418 response) [µM] | Fold Over Control (maximum fold response relative to 200 μM G418) | pC100%
Cc1cc(C(C)C)nc2nc(NC3CCN(C)CC3)nc(N)c12 [Example 602] |  | 1 to 10 |  | 
CSc1ccc(-c2ccc3c(N)nc(NC4CCN(C)CC4)nc3n2)cc1 [Example 103] |  | 1 to 10 |  | 
Cc1cc(C)c2c(N)nc(NC3CCN(Cc4cscn4)CC3)nc2n1 [Example 461] | 100 to 3000 | 1 to 10 |  | 
CSc1cccc(-c2ccc3c(N)nc(NC4CCN(C)CC4)nc3n2)c1 [Example 99] |  | 0.1 to 1 |  | 
CNc1nc(N[C@@H]2CNC[C@@H]2O)nc2nc3c(c(C)c12)CCC3 [Example 657] | 100 to 3000 | 1 to 10 |  | 
CNc1nc(N[C@H]2CNC[C@H]2OC)nc2nc(C)cc(C)c12 [Example 370] | 100 to 3000 | 1 to 10 |  | 
[2H]C([2H])([2H])Nc1nc(NC2CCN(C)CC2)nc2nc(C)cc(C)c12 [Example 328] | 100 to 3000 | 1 to 10 |  | 
CNc1nc(N[C@H]2CN(C3CC3)C[C@H]2F)nc2nc(C)cc(C)c12 [Example 519, N^2-((3S,4R)-1-cyclopropyl-4-fluoropyrrolidin-3-yl)-N^4,5,7-trimethylpyrido[2,3-d]pyrimidine-2,4-diamine] | 0 to 100 | > 31.6 |  | 
Cc1cc(C)c2c(N)nc(NC3CCN(Cc4ccc(C(=O)N(C)C)cc4)CC3)nc2n1 [Example 495] | 0 to 100 | > 31.6 |  | 
Cc1cc(C)c2c(NCCS(C)(=O)=O)nc(NC3CCN(C)CC3)nc2n1 [Example 356] | 0 to 100 | > 31.6 |  | 
CNc1nc(N[C@@H]2CCNC2)nc2nc(C)c(Br)c(C)c12 [Example 331] | 100 to 3000 | 0.1 to 1 |  | 
CC(=O)c1ccc2c(N)nc(NC3CCN(C)CC3)nc2n1 [Example 289] | 100 to 3000 | 1 to 10 |  | 
Cc1c2c(nc3nc(N[C@H]4CN(C)C[C@@H]4O)nc(N(C)C)c13)CCC2 [Example 547] | 100 to 3000 | 10 to 100 |  | 
CNc1nc(NC2CNCC2C#N)nc2nc(C)cc(C)c12 (single isomer, unassigned) [Example 450] |  |  | ## (Fold over Ctrl > 1 ≤ 30) | ++ (pC100% > 5.0 ≤ 6.0)
Cc1cc(C)c2c(N(C)C)nc(NC3CCN(C)CC3)nc2n1 [Example 262] | 100 to 3000 | 10 to 100 |  | 
COCC1CN(CCCNc2nc(N)c3c(C)cc(C)nc3n2)C1 [Example 188] | 0 to 100 | > 31.6 |  | 
Cc1nc2nc(NC3CCN(C)CC3)nc(N)c2c2ccccc12 [Example 9, 6-methyl-N^3-(1-methylpiperidin-4-yl)pyrimido[4,5-c]isoquinoline-1,3-diamine] | 100 to 3000 | 1 to 10 |  | 
Cc1c(Cl)c(-c2ccccc2)nc2nc(NCCCN3CCOCC3)nc(N)c12 [Example 128, 6-chloro-5-methyl-N2-(3-morpholinopropyl)-7-phenylpyrido[2,3-d]pyrimidine-2,4-diamine] |  | 1 to 10 |  | 
CNc1nc(N[C@@H]2CN(C)C[C@@H]2C)nc2nc(C)cc(C)c12 [Example 377] | 100 to 3000 | 1 to 10 |  | 
COc1ccc(-c2ccc3c(N)nc(NC4CCN(C)CC4)nc3n2)cc1 [Example 24, 7-(4-methoxyphenyl)-N^2-(1-methylpiperidin-4-yl)pyrido[2,3-d]pyrimidine-2,4-diamine] |  | 1 to 10 |  | 
COc1ccccc1-c1ccc2c(N)nc(NC3CCN(C)CC3)nc2n1 [Example 50] |  | 1 to 10 |  | 

Compound | Emax [%] | EC (100% of 200 uM G418 response) [µM] | Fold Over Control (maximum fold response relative to 200 μM G418) | pC100%
COc1ccc2c(N)nc(NC3CCN(C)CC3)nc2n1 [Example 17, 7-methoxy-N^2-(1-methylpiperidin-4-yl)pyrido[2,3-d]pyrimidine-2,4-diamine] | 100 to 3000 | 10 to 100 |  | 
[2H]C([2H])([2H])Nc1nc(N[C@H]2CNC[C@@H]2O)nc2nc3c(c(C)c12)CCC3 [Example 563] |  | 0.1 to 1 |  | 
Cc1cc(C)c2c(N)nc(NCC(C)(C)N3CCOCC3)nc2n1 [Example 148] | 100 to 3000 | 10 to 100 |  | 
CNc1nc(N[C@H]2CNC[C@H]2O)nc2nc(C)c3c(c12)CCC3 [Example 345] | 100 to 3000 | 10 to 100 |  | 
Cc1cc(C)c2c(N)nc(NC3CCN(Cc4cccc(F)c4O)CC3)nc2n1 [Example 566] | 100 to 3000 | 0.1 to 1 |  | 
Cc1c2c(nc3nc(NC4CCN(Cc5ccn[nH]5)CC4)nc(N)c13)CCC2 [Example 662] | 100 to 3000 | 1 to 10 |  | 
Cc1cc(C)c2c(N)nc(N[C@@H]3CNC[C@H]3F)nc2n1 [Example 297] | 100 to 3000 | 10 to 100 |  | 
Cc1cc(C)c2c(N)nc(NC3C[C@H]4CC[C@@H](C3)N4)nc2n1 (stereo partly shown) [Example 177] | 100 to 3000 | 0.1 to 1 |  | 
Cc1c2c(nc3nc(NC4CCN(Cc5ccccc5B(O)O)CC4)nc(N)c13)CCC2 [Example 670] | 100 to 3000 | 0.1 to 1 |  | 
Cc1cc(C)c2c(N)nc(NCCN3CC4(CCOC4)C3)nc2n1 [Example 183] | 0 to 100 | > 31.6 |  | 
CCNc1nc(N[C@H]2CN(C)C[C@H]2F)nc2nc(C)cc(C)c12 [Example 395] |  | 1 to 10 |  | 
CNCCCNc1nc(N)c2c(C)cc(C)nc2n1 [Example 280] |  | 1 to 10 |  | 
CNc1nc(NC2CCN(Cc3ccccc3)CC2)nc2nc3c(c(C)c12)CCC3 [Example 605] | 100 to 3000 | 0.1 to 1 |  | 
CNc1nc(N[C@H]2CN(C)C[C@H]2O)nc2nc(C)cc(C)c12 [Example 359] | 100 to 3000 | 10 to 100 |  | 
CNc1nc(N[C@H]2C3CC[C@@H]2NC3)nc2nc(C)cc(C)c12 [Example 444] | 100 to 3000 | 10 to 100 |  | 
CNc1nc(NC2C3CNC2C3)nc2nc(C)cc(C)c12 (single isomer, unassigned) [Example 446] |  |  |  | ++ (pC100% > 5.0 ≤ 6.0)
CNc1nc(N[C@@H]2CCCN(Cc3ccccc3)C2)nc2nc(C)cc(C)c12 [Example 399] | 100 to 3000 | 1 to 10 |  | 
CN1CCC(Nc2nc(N)c3ccc(Oc4ccccc4)nc3n2)CC1 [Example 32, N^2-(1-methylpiperidin-4-yl)-7-phenoxypyrido[2,3-d]pyrimidine-2,4-diamine] | 100 to 3000 | 10 to 100 |  | 
Cc1cc(C)c2c(N)nc(N[C@H]3CCNC[C@@H]3C)nc2n1 [Example 641] | 100 to 3000 | 10 to 100 |  | 
